According to ChEMBL document CHEMBL1137837 (Bioorg Med Chem Lett, 2004):
pIC50, pKi: −log10 of the molar value.

Columns and labels:
Oryctolagus cuniculus [1] = organism: Oryctolagus cuniculus; experiment: Concentration required to inhibit electrically induced contraction of superfused guinea-pig trachea was determined
Oryctolagus cuniculus [2] = organism: Oryctolagus cuniculus; experiment: Duration action in guinea pig
[3] = Partition coefficient (logD); type: physicochemical; settings: octanol/water
[4] = target: Beta-2 adrenergic receptor (Homo sapiens, UniProt P07550)
Beta-2 adrenergic receptor, sequence (P07550 whole entry): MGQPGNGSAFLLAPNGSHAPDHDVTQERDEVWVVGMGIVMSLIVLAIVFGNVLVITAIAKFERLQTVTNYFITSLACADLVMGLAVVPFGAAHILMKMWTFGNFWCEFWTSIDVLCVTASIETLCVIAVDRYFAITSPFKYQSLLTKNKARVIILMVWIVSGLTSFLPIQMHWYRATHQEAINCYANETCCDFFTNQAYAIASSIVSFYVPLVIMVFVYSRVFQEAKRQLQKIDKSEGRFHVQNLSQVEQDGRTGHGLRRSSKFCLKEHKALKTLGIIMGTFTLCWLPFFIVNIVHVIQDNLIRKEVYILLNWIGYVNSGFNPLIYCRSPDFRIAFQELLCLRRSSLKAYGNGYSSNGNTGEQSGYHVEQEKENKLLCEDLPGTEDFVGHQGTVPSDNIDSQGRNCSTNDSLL
Description: Binding affinity for human beta-2 adrenergic receptor

SMILES | pIC50 (Oryctolagus cuniculus [1]) | Duration (Oryctolagus cuniculus [2]) | logD [3] | logD ([3]; read-out: logD) | pKi [4]
O=CNc1cc([C@@H](O)CNCCc2cccc(OCCCOc3ccccc3)c2)ccc1O | 6.79 | 5.43 h | 2.49 | 2 | 8.48
O=CNc1cc([C@@H](O)CNCCc2ccc(OC3Cc4ccccc4C3)cc2)ccc1O | 6.60 | – | – | 2.95 | 7.94
O=CNc1cc([C@@H](O)CNCCc2ccc(OCCCCc3ccccc3)cc2)ccc1O | 7.15 | 6.62 h | 2.76 | 2.83 | 8.04
O=CNc1cc([C@@H](O)CNCCc2ccc(Oc3ccccc3)cc2)ccc1O | 6.92 | – | – | 1.95 | 7.45
O=CNc1cc([C@@H](O)CNCCc2ccc(OCCc3ccccc3)cc2)ccc1O | 8.96 | – | – | 1.67 | 8.11
O=CNc1cc([C@@H](O)CNCCc2ccc(OCCCc3ccccc3)cc2)ccc1O | 7.42 | – | – | 2.35 | 8.23
O=CNc1cc([C@@H](O)CNCCc2cccc(OCCCCc3ccccc3)c2)ccc1O | 6.94 | – | – | 2.83 | 8.07
OCc1cc(C(O)CNCCCCCCOCCCCc2ccccc2)ccc1O (stereo unspecified) [SALMETEROL] | – | – | 1.24 | – | –
